Data taken from ChEMBL document CHEMBL1201862, “PubChem BioAssay data set” (2004).
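These data come from cells grown in 96-well plates and exposed to compound for 48 hours at five concentrations. Abbreviation: GI50, concentration required for 50% inhibition of growth.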 Calls of active or inactive are those of the source. No stated cut-off is given here; in the data, active = GI50 up to about 1.1 µM and inactive = higher.

Assays:
Experiment in all cases: NCI-60 cell line screen, 48 h
[1] = system: SR
[2] = system: 786-0
[3] = system: MDA-MB-435
[4] = system: NCI-H522
[5] = system: MDA-MB-231
[6] = system: SK-MEL-28
[7] = system: HCC 2998
[8] = system: SN12C
[9] = system: EKVX
[10] = system: UACC-62
[11] = system: MCF7
[12] = system: COLO 205
[13] = system: SNB-19
[14] = system: PC-3
[15] = system: ACHN
[16] = system: OVCAR-3
[17] = system: LOX IMVI
[18] = system: SF-539
[19] = system: M14
[20] = system: BT-549

SMILES | GI50 [1] | GI50 [2] | GI50 [3] | GI50 [4] | GI50 [5] | GI50 [6] | GI50 [7] | GI50 [8] | GI50 [9] | GI50 [10] | GI50 [11] | GI50 [12] | GI50 [13] | GI50 [14] | GI50 [15] | GI50 [16] | GI50 [17] | GI50 [18] | GI50 [19] | GI50 [20]
COc1ccc(Nc2nc3ccccc3nc2-c2cccs2)cc1OC | 5.89 µM (inactive) | > 10 µM (inactive) | > 10 µM (inactive) | > 10 µM (inactive) | > 10 µM (inactive) | > 10 µM (inactive) | > 10 µM (inactive) | > 10 µM (inactive) | > 10 µM (inactive) | > 10 µM (inactive) | > 10 µM (inactive) | > 10 µM (inactive) | > 10 µM (inactive) | 9.35 µM (inactive) | > 10 µM (inactive) | > 10 µM (inactive) | > 10 µM (inactive) | > 10 µM (inactive) | > 10 µM (inactive) | –
CNC(=S)N/N=C(C)\C(=N/NC(=S)NC)c1ccccc1 | – | 50 µM (inactive) | – | 28.9 µM (inactive) | > 100 µM (inactive) | – | > 100 µM (inactive) | – | 38 µM (inactive) | > 100 µM (inactive) | 82.8 µM (inactive) | 55.5 µM (inactive) | 70.3 µM (inactive) | 30.9 µM (inactive) | 19.9 µM (inactive) | 86.9 µM (inactive) | 42.1 µM (inactive) | > 100 µM (inactive) | 61.4 µM (inactive) | > 100 µM (inactive)
CCOC(=O)c1cc(-c2cc(OC)c(OC)c([N+](=O)[O-])c2)c([N+](=O)[O-])n1C | 4.81 µM (inactive) | > 10 µM (inactive) | 2.04 µM (inactive) | 4.13 µM (inactive) | – | – | 3.26 µM (inactive) | 6.7 µM (inactive) | > 10 µM (inactive) | 3.53 µM (inactive) | – | – | > 10 µM (inactive) | – | 9.04 µM (inactive) | 7.67 µM (inactive) | – | 8.32 µM (inactive) | 8.57 µM (inactive) | > 10 µM (inactive)
COc1cc2c(c(O)c1OC)C(=O)[C@@H]1CCC(=O)N1C2c1ccccc1 (stereo not given in full) | 46.6 µM (inactive) | > 100 µM (inactive) | 90.6 µM (inactive) | 28.5 µM (inactive) | – | > 100 µM (inactive) | > 100 µM (inactive) | > 100 µM (inactive) | 51.9 µM (inactive) | 44.5 µM (inactive) | > 100 µM (inactive) | > 100 µM (inactive) | > 100 µM (inactive) | 31.8 µM (inactive) | 85.7 µM (inactive) | 65.6 µM (inactive) | 97.1 µM (inactive) | > 100 µM (inactive) | > 100 µM (inactive) | > 100 µM (inactive)
COC(=O)c1c/c(=N\NC(=O)CC(=O)Nc2ccccc2OC)c2ccccc2o1 | > 100 µM (inactive) | 66.4 µM (inactive) | – | > 100 µM (inactive) | – | > 100 µM (inactive) | 93.1 µM (inactive) | > 100 µM (inactive) | > 100 µM (inactive) | > 100 µM (inactive) | – | > 100 µM (inactive) | > 100 µM (inactive) | – | > 100 µM (inactive) | > 100 µM (inactive) | 66.8 µM (inactive) | > 100 µM (inactive) | > 100 µM (inactive) | –
O=S(=O)(O)SC/C=C\CSS(=O)(=O)O | > 100 µM (inactive) | > 100 µM (inactive) | – | > 100 µM (inactive) | – | > 100 µM (inactive) | > 100 µM (inactive) | > 100 µM (inactive) | > 100 µM (inactive) | > 100 µM (inactive) | – | > 100 µM (inactive) | 42.4 µM (inactive) | – | > 100 µM (inactive) | > 100 µM (inactive) | 24.8 µM (inactive) | 66.2 µM (inactive) | > 100 µM (inactive) | –
Cc1cc(O)nc(NN2C(Cl)C(=O)C2c2ccccc2O)n1 (stereo not given) | 0.796 µM (active) | 2.53 µM (inactive) | 5.68 µM (inactive) | – | 4.39 µM (inactive) | 4.94 µM (inactive) | 2.67 µM (inactive) | 2.7 µM (inactive) | 3.27 µM (inactive) | 1.6 µM (inactive) | 2.48 µM (inactive) | 12.1 µM (inactive) | 5.85 µM (inactive) | 1.32 µM (inactive) | 1.44 µM (inactive) | 0.33 µM (active) | 1.02 µM (active) | 4.54 µM (inactive) | 3.15 µM (inactive) | –
O=C1CC(c2ccc(Cl)cc2)=Nc2ccccc2N1 | 37.8 µM (inactive) | 36.1 µM (inactive) | – | 40.9 µM (inactive) | – | > 100 µM (inactive) | 97.1 µM (inactive) | 46.7 µM (inactive) | 47.3 µM (inactive) | > 100 µM (inactive) | – | > 100 µM (inactive) | 51.6 µM (inactive) | – | 69.5 µM (inactive) | 84.9 µM (inactive) | 24.2 µM (inactive) | 96.6 µM (inactive) | > 100 µM (inactive) | –
CN1CCN(c2nc3ccccc3nc2C(=O)c2ccc(Cl)cc2)CC1 | 47.4 µM (inactive) | 33.1 µM (inactive) | 44.5 µM (inactive) | 38.1 µM (inactive) | – | 50.7 µM (inactive) | 33.7 µM (inactive) | – | 86.3 µM (inactive) | 28.5 µM (inactive) | 27.7 µM (inactive) | 35.8 µM (inactive) | > 100 µM (inactive) | 51.2 µM (inactive) | > 100 µM (inactive) | 44 µM (inactive) | 40.6 µM (inactive) | 69.2 µM (inactive) | 22.2 µM (inactive) | –
C[N+]1=C(c2cccnc2/C=N/O)OCC1(C)C | > 100 µM (inactive) | > 100 µM (inactive) | – | > 100 µM (inactive) | – | > 100 µM (inactive) | > 100 µM (inactive) | > 100 µM (inactive) | > 100 µM (inactive) | > 100 µM (inactive) | – | > 100 µM (inactive) | > 100 µM (inactive) | – | > 100 µM (inactive) | > 100 µM (inactive) | > 100 µM (inactive) | > 100 µM (inactive) | > 100 µM (inactive) | –
CCOC(=O)CCC(NC(=O)c1ccc(/N=C/c2nc3cc(C(F)(F)F)ccc3nc2-c2ccccc2)cc1)C(=O)OCC (stereo not given) | > 50 µM (inactive) | 7.38 µM (inactive) | – | 12.3 µM (inactive) | – | > 50 µM (inactive) | > 50 µM (inactive) | > 50 µM (inactive) | 28.9 µM (inactive) | 12.2 µM (inactive) | – | 25.5 µM (inactive) | 10.6 µM (inactive) | > 50 µM (inactive) | 11.1 µM (inactive) | 46.6 µM (inactive) | 14.4 µM (inactive) | 11.4 µM (inactive) | 23.9 µM (inactive) | –
COc1ccc(/N=N/c2ccc3oc(=O)c(C(=O)Nc4ccccc4C)cc3c2)cc1 | > 10 µM (inactive) | > 10 µM (inactive) | > 10 µM (inactive) | > 10 µM (inactive) | > 10 µM (inactive) | > 10 µM (inactive) | > 10 µM (inactive) | > 10 µM (inactive) | > 10 µM (inactive) | – | > 10 µM (inactive) | > 10 µM (inactive) | – | > 10 µM (inactive) | 8.3 µM (inactive) | > 10 µM (inactive) | > 10 µM (inactive) | > 10 µM (inactive) | > 10 µM (inactive) | –
CC(=O)NCc1nc(C#N)c(N)o1 | – | > 100 µM (inactive) | > 100 µM (inactive) | > 100 µM (inactive) | > 100 µM (inactive) | > 100 µM (inactive) | > 100 µM (inactive) | > 100 µM (inactive) | > 100 µM (inactive) | > 100 µM (inactive) | > 100 µM (inactive) | > 100 µM (inactive) | > 100 µM (inactive) | > 100 µM (inactive) | > 100 µM (inactive) | > 100 µM (inactive) | > 100 µM (inactive) | > 100 µM (inactive) | > 100 µM (inactive) | –
N#Cc1nc(C(F)(F)F)oc1N | > 100 µM (inactive) | > 100 µM (inactive) | > 100 µM (inactive) | 66.1 µM (inactive) | > 100 µM (inactive) | > 100 µM (inactive) | > 100 µM (inactive) | > 100 µM (inactive) | > 100 µM (inactive) | > 100 µM (inactive) | > 100 µM (inactive) | > 100 µM (inactive) | > 100 µM (inactive) | > 100 µM (inactive) | > 100 µM (inactive) | > 100 µM (inactive) | > 100 µM (inactive) | > 100 µM (inactive) | > 100 µM (inactive) | –
c1ccc(-n2nc3ccc4nonc4c3n2)cc1 | > 100 µM (inactive) | > 100 µM (inactive) | > 100 µM (inactive) | – | > 100 µM (inactive) | > 100 µM (inactive) | > 100 µM (inactive) | > 100 µM (inactive) | 44.6 µM (inactive) | > 100 µM (inactive) | > 100 µM (inactive) | > 100 µM (inactive) | 45.9 µM (inactive) | > 100 µM (inactive) | > 100 µM (inactive) | > 100 µM (inactive) | > 100 µM (inactive) | > 100 µM (inactive) | > 100 µM (inactive) | –
CN1CSC(=S)N(c2cccc(C(F)(F)F)c2)C1 | 23.4 µM (inactive) | 26.2 µM (inactive) | 22.5 µM (inactive) | 16.4 µM (inactive) | – | 23.1 µM (inactive) | 18.6 µM (inactive) | 36.1 µM (inactive) | 25 µM (inactive) | 16.9 µM (inactive) | 17.3 µM (inactive) | 19 µM (inactive) | 21.5 µM (inactive) | 25.1 µM (inactive) | 19 µM (inactive) | 30 µM (inactive) | 20.2 µM (inactive) | 20.7 µM (inactive) | 17.9 µM (inactive) | 20.7 µM (inactive)
